Structures can show the parent of a compound that is named as a salt. Bridge positions count the residues as written; N and C are the ends. Square brackets hold non-standard residues; d marks the D form. Peptide text beside a SMILES is read from it. * marks the point of attachment. X1 = CC[C@H](C)CCCCC(=O)*; Dab = NCC[C@H](N)C(=O)O
Legend:
[1] = Plasma PK after single subcutaneous dose in infected neutropenic mice, population PK model; assay type: in vivo; conditions: for Time up to which plasma levels were detectable: LOQ 0.2 mg/L
Description: Mice were injected subcutaneously with a 0.1 mL single dose of polymyxin B 2 h after infection (t = 0). The PK of polymyxin B ranging between 0.5 and 64 mg/kg were determined in two mice per dose level. Mice were separated into two groups, with four dose levels studied in the thigh infection model (0.5, 2, 8, 32 mg/kg) and four dose levels studied in the lung infection model (1, 4, 16, 64 mg/kg). At t = 0, two mice were humanely euthanized to determine the bacterial load in the infected organ at the start of infection. At 10 different timepoints, blood was collected under isoflurane anaesthesia, in K3E EDTA tubes (Sarstedt, Nümbracht, Germany) through orbital sinus bleeding, which was immediately followed by cervical dislocation. The collected blood samples were centrifuged immediately at 15 871 RCF for 5 min at 4°C. Plasma was stored at −80°C until analysis.
Polymyxin B concentrations in plasma, BAL and ultrafiltrates were determined by a validated LC-MS/MS method,[18] with a lower limit of quantification (LOQ) of 0.2 mg/L for plasma and 0.05 mg/L for BAL fluid and ultrafiltrates. In this assay, 0.1 mL of plasma or 0.05 mL of BAL fluid or ultrafiltrates was added to 0.05 mL of drug-free plasma, and was mixed with 0.75 mL of phosphate buffer (pH 7.2) and 0.01 mL of internal standard (colistin sulphate, Merck KGaA, Darmstadt, Germany) at 6.25 mg/L for plasma and 5 mg/L for BAL fluid and ultrafiltrates. The samples were briefly vortexed and then centrifuged at 3000 rpm for 5 min. The supernatants (0.8 mL) were loaded onto solid-phase extraction columns (Oasis HLB solid-phase extraction cartridges, 1 mL, 30 mg, Waters, Saint-Quentin-en-Yvelines, France), preconditioned with 1 mL of methanol and followed by 1 mL of water. Columns were washed with 1 mL of water and dried under nitrogen pressure. The analytes were eluted with 0.5% formic acid in methanol and they were evaporated at 45°C under a gentle nitrogen jet stream. The residues were dissolved in 0.1 mL of 0.1% formic acid in water and analysed by LC-MS/MS. The system included an Alliance Waters 2695 LC system module (Waters) coupled with an API Quattro Micro (Waters). Polymyxin B was analysed on an XBridge C18 column (5 µm, 2.1 × 150 mm; Waters). The mobile phase A consisted of 0.1% formic acid in water, and mobile phase B was 0.1% formic acid in acetonitrile. The gradient for mobile phases A and B were respectively set at 75% and 25% with a flow rate of 0.2 mL/min. Electrospray ionization in positive mode was used for the detection of polymyxin B. Ions were analysed in the multiple reaction monitoring, and the following transitions were inspected: m/z 602.1→101 for polymyxin B1, m/z 595.1→101 for polymyxin B2, m/z 585.1→101 for CSTA and m/z 578.1→101 for CSTB. Calibration curves of polymyxin B ranged from 0.1 to 10 mg/L for plasma and ultrafiltrates, and were quantified with a quadratic regression mode. The intraday variability was characterized at four levels (0.3, 1, 2.5 and 10 mg/L) with a precision and bias of <20% for the lowest level, and <15% for the others.
A population PK model was developed using non-linear mixed-effects modelling (NONMEM, version 7.4.2 ICON Development Solutions, Ellicott City, MD, USA). The analysis was performed using the FOCE + I method on logarithmically transformed concentrations and data below the LOQ were omitted. Parameters were calculated for a virtual 1 kg mouse, resulting in pharmacokinetic parameters corresponding on a per kg base. In the first step a structural model was developed, using one- and two-compartment models. The absorption following subcutaneous injections was described using an absorption rate constant (ka). Typical values for central (Vc) and peripheral volume of distribution (Vp), CL and intercompartmental clearance (Q) were estimated. As bioavailability (F) could not be estimated, CL, Vc, Q, and Vp values corresponded to the ratios CL/F, Vc/F, Q/F and Vp/F, respectively. […]

[2] = Epithelial lining fluid (ELF) concentration from BAL, urea correction; assay type: in vivo; conditions: lung-infected mice
Description: Bronchoalveolar lavage (BAL) was performed immediately after blood collection. The trachea was exposed by a ventral vertical incision in the neck for insertion of a cannula. Lungs were instilled two times with 1 mL of sterile saline, and the fluid was recovered immediately. The recovered lavages were pooled, directly placed on ice, and subsequently stored at −80°C.
By taking BAL fluid samples and a plasma sample at the same timepoint, the concentrations in ELF could be determined. The ratio of the urea concentration in BAL to the concentration in plasma was used to determine the ELF concentration.[17] In short, polymyxin B concentration in ELF was calculated by multiplying the polymyxin B concentration in the BAL fluid by the ratio of the urea concentration in the plasma and BAL fluid: [polymyxin B]ELF = [polymyxin B]BAL × ([urea]Plasma/[urea]BAL). Urea concentrations were measured with an enzymatic assay (QuantiChrom urea assay kit; DIUR-100; BioAssay Systems, Hayward, CA, USA).
Polymyxin B concentrations in plasma, BAL and ultrafiltrates were determined by a validated LC-MS/MS method,[18] with a lower limit of quantification (LOQ) of 0.2 mg/L for plasma and 0.05 mg/L for BAL fluid and ultrafiltrates. […] The residues were dissolved in 0.1 mL of 0.1% formic acid in water and analysed by LC-MS/MS. […] Polymyxin B was analysed on an XBridge C18 column (5 µm, 2.1 × 150 mm; Waters). […]

plasma proteins [3] = conditions: mouse, spiked pooled plasma, ultracentrifugation; cited from earlier work
Source text: Protein binding of polymyxin B is known to be high. However, a difference was found between the current study (unbound fraction 20%) compared with previous studies (8.6% for polymyxin B,[8] 8.4% for colistin[5]), which affects the PTA. In the present study, ultrafiltration was used for determining the unbound fraction, whilst ultracentrifugation was used in the other studies. With the ultrafiltration method, correction for the NSB to the ultrafiltration membranes was needed. In addition, differences in mouse plasma used for determination of polymyxin B protein binding may (partly) explain the ...

plasma proteins [4] = conditions: clinical studies; cited from earlier work
Description: A previously published population PK model[19] and Monte Carlo simulations was used to estimate the fAUCs of 5000 patients treated with 200 mg q24h (MicLab 2.71) taking into account protein-binding rates ranging from 36% to 98% as previously reported.[20–23] The PTA was calculated for isolates with MICs ranging from 0.25 to 4 mg/L. || In clinical studies, the protein binding of polymyxin B is much higher than reported in mice, with protein binding in plasma up to 99% for polymyxin B.[22],[26],[27] This applies to colistin as well.[5],[28] Therefore, the PK/PD targets based on the unbound fraction are necessary for translating PK/PD data of polymyxin B to the clinic.

For CC[C@H](C)CCCCC(=O)N[C@@H](CCN)C(=O)N[C@H](C(=O)N[C@@H](CCN)C(=O)N[C@H]1CCNC(=O)[C@H]([C@@H](C)O)NC(=O)[C@H](CCN)NC(=O)[C@H](CCN)NC(=O)[C@H](CC(C)C)NC(=O)[C@@H](Cc2ccccc2)NC(=O)[C@H](CCN)NC1=O)[C@@H](C)O [polymyxin B, Polymyxin B sulphate salt] (X1-[Dab]T[Dab][Dab][Dab][dF]L[Dab][Dab]T; lactam 4-C), the “ka, absorption rate constant for 10 mg/kg dose” value ([1]; infected neutropenic mice, single s.c. dose 0.5–64 mg/kg, plasma LC-MS/MS, population PK (NONMEM), one-compartment, first-order absorption) was 1.63 h⁻¹, the “Time up to which plasma levels were detectable” value ([1]; mouse, s.c., doses 16–64 mg/kg) was “up to 8 h” and the “Time up to which plasma levels were detectable” value ([1]; mouse, s.c., doses up to 8 mg/kg) was “up to 6 h”. For the same molecule, the “Time to peak (Tmax)” value ([1]; mouse, s.c., thigh and lung infection model) was at most 2 h, the CL/F ([1]; mouse, sc, 10 mg/kg, infected neutropenic mice, single s.c. dose 0.5–64 mg/kg, plasma LC-MS/MS, population PK (NONMEM), one-compartment, read-out: CL/F, clearance for 10 mg/kg dose (converted)) was 6.4 mL/min/kg and the Vd/F ([1]; mouse, sc, infected neutropenic mice, single s.c. dose 0.5–64 mg/kg, plasma LC-MS/MS, population PK (NONMEM), one-compartment, read-out: Vc/F, central volume of distribution) was 0.774 L/kg. For the same molecule, the “Dose on CL, power on covariate effect of dose on CL” value ([1]; population PK model, CL = 0.384 × (DOSE/10)^−0.26) was −0.26, the “Dose on ka, power on covariate effect of dose on ka” value ([1]; population PK model, ka = 1.63 × (DOSE/10)^−0.407) was −0.407 and the “Concentration in ELF” value ([2]; 64 mg/kg s.c., BAL, urea correction, data not shown) was “Low levels”. The “Concentration in ELF” value ([2]; other doses (1, 4, 16 mg/kg s.c.), LOQ 0.05 mg/L for BAL fluid) was “below the LOQ”, the Unbound fraction (plasma proteins [3]) was 8.6% and the “Protein binding in plasma” value (plasma proteins [4]) was “up to 99%”.

Reference: article PMC10377753, “Pharmacokinetic and pharmacodynamic properties of polymyxin B in Escherichia coli and Klebsiella pneumoniae murine infection models” (Journal of Antimicrobial Chemotherapy, 2023)
